Among the test systems are MCF7 breast; A549 NSCLC; HCC-2998 colon; KM12 colon; SNB-75 CNS; SNB-78 CNS; HL-60(TB) leukemia; HS 578T breast; BT-549 breast; DU-145 prostate.
Assay in all cases: DTP human tumour cell line panel, 48 h

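48-hour exposure; five concentrations; linearly interpolated endpoints. TGI marks complete inhibition of growth.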

With `C=C1C(=O)O[C@@H]2[C@H]3O[C@]3(C)CCC=C(C)CC[C@@H]12`, the TGI with MCF7 breast came out at 47.4 µM; with A549 NSCLC, 202 µM; in the assay with HCC-2998 colon, 56.1 µM; with KM12 colon, 53.6 µM; in the assay on SNB-75 CNS, 123 µM; with SNB-78 CNS, 62 µM. For the same compound, in the assay on HL-60(TB) leukemia, the TGI turned out to be 23.4 µM.

For `CCOC(=O)CC(=O)NC1CC2CCC1(C)C2(C)C` (stereo unspecified), the concentration for total growth inhibition (TGI) in the assay with MCF7 breast, in the assay on HS 578T breast, in the assay with A549 NSCLC, with HCC-2998 colon, in the assay with KM12 colon and in the assay on SNB-75 CNS was more than 100 µM throughout. For the same compound, the TGI in the assay on BT-549 breast, in the assay on DU-145 prostate and with HL-60(TB) leukemia was more than 100 µM each time.

For the compound `CCN(CC)C(=S)SS(=O)(=O)c1ccccc1C(=O)O`, the TGI with MCF7 breast, in the assay with HS 578T breast, in the assay on A549 NSCLC, with HCC-2998 colon, with KM12 colon and with SNB-75 CNS was more than 100 µM in each case. Also, the total growth inhibition concentration (TGI) is more than 100 µM in the assay on BT-549 breast, more than 100 µM with DU-145 prostate and more than 42 µM in the assay with HL-60(TB) leukemia.

With `COC(=O)c1ccccc1C1CN=NC12Cc1ccc3ccccc3c1C2=O` (stereo unspecified), the TGI in the assay with MCF7 breast, in the assay with HS 578T breast, in the assay on A549 NSCLC, in the assay with HCC-2998 colon, in the assay with KM12 colon and with SNB-75 CNS was more than 100 µM in each case. The TGI in the assay on BT-549 breast, in the assay with DU-145 prostate and in the assay with HL-60(TB) leukemia was more than 100 µM in each case.

Turning to `Cn1c(=O)oc2cc(C(=O)CSC(=S)N3CCCCCC3)ccc21`, the TGI with MCF7 breast, with HS 578T breast, with A549 NSCLC, with HCC-2998 colon, with KM12 colon and in the assay on SNB-75 CNS was more than 100 µM in each case. Also, the concentration for total growth inhibition (TGI) with BT-549 breast, with DU-145 prostate and with HL-60(TB) leukemia was more than 100 µM throughout.

As for `Cc1ccc(Nc2nc(=S)[nH]c3[nH]ncc23)cc1`, the TGI in the assay on MCF7 breast, in the assay with HS 578T breast, with A549 NSCLC, in the assay with HCC-2998 colon, in the assay with KM12 colon and in the assay with SNB-75 CNS was more than 100 µM each time. In addition, the TGI with BT-549 breast, with DU-145 prostate and with HL-60(TB) leukemia was more than 100 µM throughout.

Turning to `CCOC(=O)CN1CCNCCN(CC(=O)OCC)CCNCC1`, the concentration for total growth inhibition (TGI) in the assay with MCF7 breast, in the assay with HS 578T breast, in the assay on A549 NSCLC, in the assay with HCC-2998 colon, with KM12 colon and in the assay with SNB-75 CNS was more than 100 µM throughout. The TGI with BT-549 breast, in the assay on DU-145 prostate and in the assay on HL-60(TB) leukemia was more than 100 µM each time.

For the compound `O=C(c1ccccc1)c1ccc(C(c2c(O)c3ccccc3oc2=O)c2c(O)c3ccccc3oc2=O)cc1`, the total growth inhibition concentration (TGI) with MCF7 breast was more than 100 µM; with HS 578T breast, 64.5 µM; with A549 NSCLC, more than 82.5 µM; with HCC-2998 colon, 50.4 µM; in the assay with KM12 colon it was 37.1 µM; in the assay with SNB-75 CNS, 62.4 µM. Moreover, the TGI in the assay with BT-549 breast is 48.9 µM; in the assay with DU-145 prostate it was more than 85.7 µM; in the assay with HL-60(TB) leukemia, more than 100 µM.

Take `C=C(O)c1ccccc1C#Cc1ccccc1C(=O)OC`: the TGI in the assay with MCF7 breast, with HS 578T breast, in the assay with A549 NSCLC, with HCC-2998 colon, in the assay with KM12 colon and with SNB-75 CNS was more than 10 µM in each case. The concentration for total growth inhibition (TGI) in the assay on BT-549 breast, with DU-145 prostate and with HL-60(TB) leukemia was more than 10 µM each time.

`CC(C)=CCC[C@]1(C)CC[C@]2(C)C3CCC(=C(C)C)[C@@H](CCCO)[C@]3(C)CC[C@@]2(C)C1` (stereo partly specified): the total growth inhibition concentration (TGI) was 67.5 µM in the assay with MCF7 breast; more than 100 µM in the assay on HS 578T breast; more than 100 µM in the assay with A549 NSCLC; more than 100 µM in the assay on HCC-2998 colon; more than 100 µM in the assay on KM12 colon; more than 100 µM in the assay with SNB-75 CNS. Moreover, the TGI was more than 100 µM with BT-549 breast, more than 100 µM in the assay with DU-145 prostate and 84.3 µM in the assay on HL-60(TB) leukemia.

`CC1=C2C(O)C(C(C)C(=O)NCC(C)C)CCC2(C)C=CC1=O` (stereo unspecified): the total growth inhibition concentration (TGI) in the assay with MCF7 breast, in the assay on A549 NSCLC, with HCC-2998 colon, in the assay with KM12 colon, in the assay with SNB-75 CNS and in the assay with SNB-78 CNS was more than 100 µM each time. In the assay with HL-60(TB) leukemia, the concentration for total growth inhibition (TGI) was more than 100 µM.

In the case of `COc1c2c(c(OC)c3c1c(=O)c1ccccc1n3C)OCO2`, the TGI in the assay on MCF7 breast is more than 100 µM; with HS 578T breast, more than 100 µM; with A549 NSCLC, more than 100 µM; with HCC-2998 colon it was more than 100 µM; with KM12 colon, more than 41.9 µM; with SNB-75 CNS, more than 100 µM. In addition, the values for the TGI in the assay on BT-549 breast, in the assay with DU-145 prostate and with HL-60(TB) leukemia were more than 100 µM, more than 100 µM and more than 25.6 µM, respectively.

For the compound `CCN1CC2=C(N=c3s/c(=C\c4ccc(Cl)cc4)c(=O)n3C2c2ccc(Cl)cc2)/C(=C/c2ccc(Cl)cc2)C1` (stereo unspecified), the TGI is more than 100 µM in the assay with MCF7 breast; more than 100 µM with HS 578T breast; more than 100 µM in the assay with A549 NSCLC; more than 100 µM in the assay on HCC-2998 colon; more than 100 µM in the assay on KM12 colon; 9.74 µM in the assay with SNB-75 CNS. Moreover, the TGI in the assay with BT-549 breast was 85.8 µM; in the assay on DU-145 prostate it was more than 100 µM; in the assay on HL-60(TB) leukemia, more than 100 µM.

On to `CCOC(=O)c1nc2cc(N3CCOCC3)c(F)cc2[nH]c1=O`, for which the TGI in the assay on MCF7 breast, in the assay on HS 578T breast, in the assay with A549 NSCLC, with HCC-2998 colon, in the assay on KM12 colon and with SNB-75 CNS was more than 100 µM throughout. The TGI in the assay with BT-549 breast, in the assay on DU-145 prostate and with HL-60(TB) leukemia was more than 100 µM each time.

Regarding `CCOC(=O)c1cc2cc(N(C(C)=O)C(C)=O)ccc2s1`, the total growth inhibition concentration (TGI) in the assay with MCF7 breast is more than 100 µM; in the assay on HS 578T breast, 37.6 µM; in the assay with A549 NSCLC it was more than 100 µM; in the assay on HCC-2998 colon it was more than 100 µM; in the assay on KM12 colon, more than 100 µM; with SNB-75 CNS, 39.9 µM. In addition, the TGI in the assay with BT-549 breast is 91.5 µM; in the assay with DU-145 prostate, more than 100 µM; in the assay on HL-60(TB) leukemia, 39.2 µM.

The values are drawn from PubChem BioAssay (NCI).
